# Earlier results as cited in patent US20220054558A1, “COMPOSITIONS COMPRISING BACTERIAL STRAINS” (4D Pharma Research Limited, priority 2018, published 2022).
# Tested on: C. difficile
# Settings: reference [19]
structure (smiles),measurement,value
CCCCC(=O)O [Valeric acid],viability of C. difficile,reduce the viability
